Source: patent US5922554A, “Inhibition of cellular uptake of cholesterol” (The Regents of the University of California, priority 1996, dated 1999)

Assays:
fibroblast monolayers [1] = assay: Cholesterol efflux from ^3 H-cholesterol labeled fibroblasts to plasma; assay type: cell-based, human
Experimental: Fibroblast monolayers were equilibrated with ^3 H-FC-labeled native plasma or with isolated ^3 H-labeled LDL, as specified for each experiment. Following incubation, the dishes were washed with albumin-complete PBS and then (×4) with complete PBS. They were then incubated for 3 min with unlabeled plasma or lipoprotein fractions and the rate of appearance of radioactivity in the medium determined. Samples of medium (100 μl) were immediately chilled in ice water and centrifuged (10 min, 2000× g) at 0-2° C. ^3 H-cholesterol radioactivity in the supernatant was either assayed directly, or fractionated by agarose gel electrophoresis. FC efflux was linear as previously reported (Kawano et al., Biochemistry, 32: 5025-5028 (1993)).
For electrophoresis, 20 μl portions of labeled medium were added to strips of 0.75% w/v agarose in 0.025M barbital buffer (pH 8.6) and separated as previously described (Fielding et al., Biochemistry, 30: 8551-8557 (1991)). 2.5 mm gel fractions were then collected, and radioactivity measured. The location of major lipoprotein classes was determined from strips run simultaneously with whole native plasma equilibrated (60 min, 37° C.) with ^3 H-FC.
^c Percent loss of label from cells prelabeled (10 min, 37° C.

fibroblast monolayers [2] = assay: D2O-Ficoll density gradient fractionation of ^3 H-FC labeled fibroblasts; assay type: cell-based, human; conditions: clathrin fraction d 1.12 g ml^-1; NEM 2 mM
Experimental: Early endosomal vesicles were labeled with LDL-derived ^3 H-FC by a modification of procedures described by Woodman & Warren (1991) J. Cell Biol., 112:1133-1141. Fibroblast monolayers in 10 cm dishes were washed in ice-cold PBS. The cells were labeled by incubation (2 h, 4° C.) with ^3 H-FC LDL. The monolayers were washed in PBS and brought to 31° C. for 0-15 min. The cells were then quickly chilled on ice, and cold unlabeled LDL was added (15 min, 4° C.) to displace any remaining surface-bound labeled LDL and all subsequent steps were carried out at 0-4° C.
Cells from three 10 cm dishes were used for each gradient. Monolayers were washed with 140 mM sucrose, 0.5 mM MgCl2, 1 mM EGTA, 20 mM 2-[N-morpholino]ethanesulfonic acid (MES), 70 mM potassium acetate, pH 6.6 (`vesicle buffer`) (Woodman & Warren, supra.). The cells were scraped from the dishes. Dithiothreitol (1 mm) and protease inhibitors (PMSF, 200 μg ml^-1; benzamidine 0.5 mM; soybean trypsin inhibitor 10 μg ml^-1; leupeptin 1 μg ml^-1) were added. The cells were broken with a Dounce homogenizer (15 strokes) and the homogenate centrifuged at 500× g for 5 min. Ribonuclease A (50 μg ml^-1) was added. After 30 min a second centrifugation was carried out (7000× g, 30 min). Supernatant (~2 ml) was layered on a 10 ml continuous gradient of 2% Ficoll-9% D2 O to 20% Ficoll-90% D2 O in vesicle buffer containing 1 mM dithiothreitol. Centrifugation in a Beckman SW41 rotor was carried out at 80,000× g for 16 h. Fractions (~0.6 ml) were collected dropwise and the distribution of FC label determined. Because of slight variation in fraction size between gradients, data were normalized to 20 fractions for comparison between experiments. Solution density was determined gravimetrically using 100 μl portions of each fraction. The density of a given fraction was reproducible ±0.5% between experiments.
Fibroblast monolayers were incubated with ^3 H-FC LDL for 30 min at 31° C. to predominantly label the intermediate density vesicle fraction. Cell surface LDL was removed as described above. […]

fibroblast monolayers [3] = assay: Distribution of cell-associated LDL ^3 H-FC label by release with unlabeled lipoproteins/plasma; assay type: cell-based, human; conditions: 2 mM NEM; 10 min, 37° C. with 80% v/v plasma-PBS; control 0.57 ± 0.03
Experimental: Label released by unlabeled LDL (open circles); label released by unlabeled HDL but not unlabeled LDL (closed triangles) and label released with neither LDL or HDL (closed circles) expressed as percent of total label released. LDL specific activity was […]. All fractions are defined in terms of label released by either unlabeled lipoprotein within 5 min of incubation at 37° C.
Cell monolayers equilibrated with 7% plasma-DMEM were first incubated with ^3 H-FC labeled LDL as described above. At intervals, dishes of cells were washed, then incubated with unlabeled LDL or HDL at their plasma concentrations. A fraction of cell-associated label was rapidly released; maximum recovery in the medium occurred within 10 min at 37° C. In FIG. 4, the proportions of cell label which were LDL-releasable, LDL-resistant but HDL-releasable, and resistant to both LDL and HDL are shown as a function of time.
^b Proportion of cell cholesterol label retained in the cells

fibroblast monolayers [4] = assay: Cellular cholesterol mass determined enzymatically; assay type: cell-based, human; conditions: 2 mM NEM, 120 min, 37° C.; control 4.1 ± 0.3
Experimental: In most experiments, LDL was labeled directly with ^3 H-FC by exchange from albumin-agarose covalent complex essentially as previously described (Miida et al., Biochemistry, 29: 10469-10474 (1990)). Briefly, recrystallized human serum albumin (Sigma Chemical Co, St. Louis, Mo., USA) was covalently linked to CNBr-activated Sepharose 6B (Pharmacia). 1,2-^3 H-FC in ethanol (0.1-1.0 mCi, 10-20 μl/ml gel suspension) was added and the mixture incubated with gentle stirring for 60 mm at 37° C. The labeled suspension was centrifuged (500× g, 1 min) and the gel equilibrated (60 min, 37° C.) with unlabeled LDL prepared as described above. Finally the gel was removed by centrifugation, leaving labeled LDL in the supernatant. LDL total and FC mass was determined fluorimetrically with cholesterol oxidase (Heider & Boyett, J. Lipid Res. 19: 514-518 (1978)) in the presence or absence of cholesterol esterase. EC mass was obtained by difference. LDL ^3 H-radioactivity was measured by liquid scintillation spectrometry. FC specific activity in these experiments was 3×10^4 to 5×10^5 cpm μg^-1.
The FC and EC mass of cell monolayers was determined before and after incubation with lipoprotein as described above. Portions of the chloroform phase were analyzed for total and free cholesterol. […]
^a Increase in cellular cholesterol mass determined enzymatically ove

vesicular transport = conditions: Tageya et al.; cited from earlier work
fibroblast monolayers [5] = assay: Influx/uptake of ^3 H-FC (free cholesterol) from labeled LDL (or plasma, HDL) into normal fibroblast monolayers; assay type: cell-based, human

Q: With CCN1C(=O)C=CC1=O [N-ethylmaleimide] as the molecule, how does the “initial rate of efflux of FC from prelabeled cells to plasma” value (fibroblast monolayers [1]) read?
A: increased several-fold

Q: And the “% efflux to plasma (3 min)” value (fibroblast monolayers [1]; 2 mM NEM, 80% v/v plasma-PBS, 37° C., control 13.3 ± 0.1)?
A: 32.4 ± 0.2%

Q: What about the “FC label in density gradient” value (fibroblast monolayers [2]) of the same molecule?
A: no peak of FC label was present with clathrin at d 1.12 g ml^-1

Q: And the “Lipoprotein-resistant label (proportion of cell cholesterol label retained)” value (fibroblast monolayers [3])?
A: 0.24 ± 0.03

Q: What about the Δ total cholesterol (fibroblast monolayers [4]) of the same molecule?
A: 0.4 ± 0.2 μg dish^-1

Q: What about the “concentration for maximal inhibition in assays of vesicular transport in vitro” value (vesicular transport) of the same molecule?
A: 1 mM

Q: What about the “inhibition of LDL-FC pathway (summary, words)” value (fibroblast monolayers [5]) of the same molecule?
A: inhibited

Q: What about the “effect on cellular uptake of LDL FC in first 10-15 min of incubation” value (fibroblast monolayers [5]; 30 min preincubation, FIG. 8) of the same molecule?
A: no effect

Q: And the IC (maximal) (fibroblast monolayers [5]; Homo sapiens, Fibroblast, read-out: concentration for maximal inhibition)?
A: 2000 to 5000 µM

Q: And the “FC Influx” value (fibroblast monolayers [5]; LDL-FC 60.2 μg ml^-1, 60 min, 37° C., 30 min preequilibration with inhibitor at: Na-azide 1 mM, NH4-vanadate 1 mM, NEM 2 mM, KNO3 50 mM, progesterone 30 μM, forskolin 30 μM, IBMX 100 μM, chloroquine 20 μM)?
A: 0.40 ± 0.01 µg

Q: And the “inhibition of uptake of free cholesterol from LDLs (summary)” value (fibroblast monolayers [5]; NEM or KNO3, Example 1, FIG. 8)?
A: > 80%

Q: What about the “effect on LDL FC uptake” value (fibroblast monolayers [5]; Table 3 conditions) of the same molecule?
A: blocks selective uptake of FC from LDL

Q: What about the “time to complete inhibition by NEM” value (fibroblast monolayers [5]; cells prelabeled to equilibrium (24 h) with ^3 H-FC) of the same molecule?
A: ≤ 30 min

Q: What about the “FC Influx, % (PBS only = 100.0)” value (fibroblast monolayers [5]; same concentrations and conditions as Table 3 FC influx, 60 min) of the same molecule?
A: 30.0%

Q: And the “inhibition of uptake of ^3 H-FC from LDL on further incubation” value (fibroblast monolayers [5]; time course, 30 min preincubation, after 10-15 min, FIG. 8 (5 mM NEM))?
A: > 80%
